Measured values as given in patent US9770452B2, “Quinoxaline derivatives as GPR6 modulators” (Takeda Pharmaceutical Company Limited, priority 2012, dated 2017).

What was measured:
[1] = molecular target: T1, GPR6 receptor (Homo sapiens, UniProt P46095); assay: Inhibition of cAMP Activity of GPR6 In Vitro Assay (CHO-K1 cells, HTRF cAMP); assay type: cell-based; details: compounds of Compound Table 1; inhibition of constitutive cAMP activity of GPR6 expressed in CHO-K1 cells; approximate IC50; read-out: IC50
T1 construct: expressed in transfected cells
Method in brief: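 CHO-K1 cells with doxycycline-induced (1 μg/ml, 20 h) GPR6 treated with compounds 45 min at 37 °C in Ringer's buffer (pH 7.4) with 0.5% fatty acid free BSA. Constitutive cAMP measured by Lance HTRF Ultra cAMP; IC50 from four-parameter logistic fit.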

[2] = test system: haloperidol-induced catalepsy; assay: Haloperidol-Induced Catalepsy, in vivo rodent Parkinson's disease model (rats); details: rat, 10 mpk sc
Source text: (§1) Haloperidol-Induced Catalepsy—In Vivo Rodent Parkinson's Disease Model
The motor symptoms of Parkinson's disease include akinesia, bradykinesia, rigidity, tremor and postural abnormalities and are associated with the loss of nigral dopaminergic cells and a decline in striatal dopamine levels. Administration of haloperidol to rodents leads to a transient parkinsonian-like state that is reversed by the administration of L-Dopa (Duty, S.; Jenner, P. Br. J. Pharmacol. (2011), 164, 1357-1391) and other drugs that have been clinically validated for the treatment of Parkinson's disease. […]
Male Sprague-Dawley rats (Charles River, Calco, Italy) weighing 175-200 g are used. […] The time span from placement of the paws until the first complete removal of one paw (descent latency) was measured maximally for 120 sec for rats. For mice, the front paws of a mouse was placed on a horizontal metal bar raised 2″ above a Plexiglas platform and time was recorded for up to 30 seconds per trial. […]
Catalepsy was measured 30 min, 120 min, and/or 240 min after dosing the subjects a 0.3 mg/kg i.p. dose of haloperidol along with the GPR6 modulator test compound. Test compound plasma and brain levels were determined by collected tissue samples at the end of the experiment, which was either at the 120 or 240 min time point. […]

[3] = test system: haloperidol-induced catalepsy; assay: Haloperidol-Induced Catalepsy, in vivo rodent Parkinson's disease model (mice); details: mouse; for % reversal 30 min: 30 min after dosing with haloperidol; for % reversal 120 min: 120 min after dosing with haloperidol
Source text: as §1
The motor symptoms of Parkinson's disease include akinesia, bradykinesia, rigidity, tremor and postural abnormalities and are associated with the loss of nigral dopaminergic cells and a decline in striatal dopamine levels. Administration of haloperidol to rodents leads to a transient parkinsonian-like state that is reversed by the administration of L-Dopa (Duty, S.; Jenner, P. Br. J. Pharmacol. (2011), 164, 1357-1391) and other drugs that have been clinically validated for the treatment of Parkinson's disease. Haloperidol antagonizes dopamine D2 and, to a lesser extent, D1 receptors in medium spiny neurons that comprise the indirect and direct pathways of the motor circuit respectively. The resultant block of striatal dopamine transmission results in abnormal downstream firing within the basal ganglia circuits that is manifest as symptoms of muscle rigidity and catalepsy. Catalepsy has been postulated to reflect the clinical features of Parkinson's disease, whereby patients experience an inability of to initiate movements.
Male Sprague-Dawley rats (Charles River, Calco, Italy) weighing 175-200 g are used. Alternatively, male C57Bl6 mice weighing 25-35 g were used. The cataleptic state was induced by the subcutaneous administration of the dopamine receptor antagonist haloperidol (0.3 mg/kg, sc), 90 min before testing the animals on the vertical grid test. For this test, the rats or mice were placed on the wire mesh cover of a 25 cm×43 cm plexiglass cage placed at an angle of about 70 degrees with the bench table. The subject was placed on the grid with all four legs abducted and extended (“frog posture”). The use of such an unnatural posture is essential for the specificity of this test for catalepsy. The time span from placement of the paws until the first complete removal of one paw (descent latency) was measured maximally for 120 sec for rats. For mice, the front paws of a mouse was placed on a horizontal metal bar raised 2″ above a Plexiglas platform and time was recorded for up to 30 seconds per trial. The test ended when the animal's front paws returned to the platform or after 30 seconds. The test was repeated three times and the average of the three trials was reported as the intensity index of catalepsy.
Catalepsy was measured 30 min, 120 min, and/or 240 min after dosing the subjects a 0.3 mg/kg i.p. dose of haloperidol along with the GPR6 modulator test compound. Test compound plasma and brain levels were determined by collected tissue samples at the end of the experiment, which was either at the 120 or 240 min time point. A representative number of compounds of the invention were administered in a dose range from 0.1 to 100 mg/kg i.p, sc or po in conjunction with haloperidol. The A2a antagonist KW6002 (istradefylline) was dosed at 0.6 mg/kg i.p. as a positive control. The compounds of the invention produced reversal of haloperidol-induced catalepsy. The results of a representative no. of compounds of this invention in this assay are disclosed in the table below.

T1 sequence (P46095 whole entry): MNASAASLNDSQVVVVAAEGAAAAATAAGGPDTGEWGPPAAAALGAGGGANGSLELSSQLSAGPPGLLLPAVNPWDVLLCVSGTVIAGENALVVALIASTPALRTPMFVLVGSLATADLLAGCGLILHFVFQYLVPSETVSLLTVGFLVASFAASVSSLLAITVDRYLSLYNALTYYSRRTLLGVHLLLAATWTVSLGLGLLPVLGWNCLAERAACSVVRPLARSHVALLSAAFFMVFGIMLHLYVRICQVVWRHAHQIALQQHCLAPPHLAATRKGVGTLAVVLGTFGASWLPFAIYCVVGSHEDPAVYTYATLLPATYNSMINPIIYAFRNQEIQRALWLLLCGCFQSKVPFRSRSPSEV

Compound	IC50 [1]	% reversal 30 min ([2]; 30 min after dosing with haloperidol)	% reversal 120 min ([2]; 120 min after dosing with haloperidol)	% reversal 30 min ([3]; 30 mpk ip)	% reversal 120 min ([3]; 30 mpk ip)	% reversal 30 min ([3]; 10 mpk ip)	% reversal 120 min ([3]; 10 mpk ip)
3-(4-(2,4-difluorobenzyl)piperidin-1-yl)-2-(pyridin-3-ylamino)quinoxaline-6-carbonitrile, 2,2,2-trifluoroacetic acid salt [Cpd 415]	64 nM	36.9%	25.1%	–	–	–	–
Clc1ccc(Cl)c(CN2CCN(c3nc4ccccc4nc3NC3CC3)CC2)c1.O=C(O)C(F)(F)F [Cpd 33, N-cyclopropyl-3-(4-(2,5-dichlorobenzyl)piperazin-1-yl)quinoxalin-2-amine, 2,2,2-trifluoroacetic acid salt]	2160 nM	–	–	48.1%	41.4%	–	–
Clc1cccc(Cl)c1CN1CCN(c2nc3ccccc3nc2NC2CC2)CC1.O=C(O)C(F)(F)F [Cpd 50, N-cyclopropyl-3-(4-(2,6-dichlorobenzyl)piperazin-1-yl)quinoxalin-2-amine, 2,2,2-trifluoroacetic acid salt]	–	–	–	40.4%	29.6%	–	–

Now from value to compound, other results behind:

IC50 [1]	Compound	% reversal 30 min ([2]; 30 min after dosing with haloperidol)	% reversal 120 min ([2]; 120 min after dosing with haloperidol)	% reversal 30 min ([3]; 30 mpk ip)	% reversal 120 min ([3]; 30 mpk ip)	% reversal 30 min ([3]; 10 mpk ip)	% reversal 120 min ([3]; 10 mpk ip)
1200 nM	Clc1cccc(CN2CCN(c3nc4ccccc4nc3Nc3cccnc3)CC2)c1.O=C(O)C(F)(F)F [Cpd 53, 3-(4-(3-chlorobenzyl)piperazin-1-yl)-N-(pyridin-3-yl)quinoxalin-2-amine, 2,2,2-trifluoroacetic acid salt]	–	–	13.6%	15.4%	–	–
250 nM	N#Cc1ccc2nc(NC3CC3)c(N3CCN(Cc4cc(Cl)ccc4Cl)CC3)nc2c1 [Cpd 59, 2-(cyclopropylamino)-3-(4-(2,5-dichlorobenzyl)piperazin-1-yl) quinoxaline-6-carbonitrile]	–	–	27.4%	15.7%	42%	18.8%
